Measured values from patent publication US8178506B2, “Oligomeric compounds and compositions for use in modulation of small non-coding RNAs” (Regulus Therapeutics Inc., priority 2003, dated 2012).
In the oligonucleotide strings, read from the 5' end, every base follows the letter of its sugar. An asterisk marks phosphorothioate; unmarked linkages are phosphodiester. Other units and linkages are bracketed, terminal groups are in braces. A string of capitals states the bases alone. e = 2'-O-(2-methoxyethyl) (MOE); [5mC] = 5-methylcytosine

Key:
Format in all cases: cell-based, human
adipocytes = assay: Triglyceride accumulation assay in adipocytes
Description: The triglyceride accumulation assay measures the synthesis of triglyceride by adipocytes. Triglyceride accumulation is measured using the Infinity™ Triglyceride reagent kit (Sigma-Aldrich, St. Louis, Mo.). On day nine post-transfection, cells are washed and lysed at room temperature, and the triglyceride assay reagent is added. Triglyceride accumulation is measured based on the amount of glycerol liberated from triglycerides by the enzyme lipoprotein lipase. Liberated glycerol is phosphorylated by glycerol kinase, and hydrogen peroxide is generated during the oxidation of glycerol-1-phosphate to dihydroxyacetone phosphate by glycerol phosphate oxidase. Horseradish peroxidase (HRP) uses H2O2 to oxidize 4-aminoantipyrine and 3,5 dichloro-2-hydroxybenzene sulfonate to produce a red-colored dye. Dye absorbance, which is proportional to the concentration of glycerol, is measured at 515 nm using an UV spectrophotometer. Glycerol concentration is calculated from a standard curve for each assay, and data are normalized to total cellular protein as determined by a Bradford assay (Bio-Rad Laboratories, Hercules, Calif.).
An increase in triglyceride content is another well-established marker for adipocyte differentiation. The triglyceride accumulation assay measures the synthesis of triglyceride by adipocytes. Triglyceride accumulation was measured using the Infinity™ Triglyceride reagent kit (Sigma-Aldrich, St. Louis, Mo.). Human white preadipocytes (Zen-Bio Inc., Research Triangle Park, N.C.) were grown in preadipocyte media (ZenBio Inc.). One day before transfection, 96-well plates were seeded with 3000 cells/well. Cells were transfected according to standard published procedures with 250 nM oligomeric compound in LIPOFECTIN™ (Invitrogen Corporation, Carlsbad, Calif.) (Monia et al., J. Biol. Chem. 1993 268(19):14514-22). Oligomeric compounds were tested in triplicate on each 96-well plate, and the effects of TNF-α, a positive drug control that inhibits adipocyte differentiation, were also measured in triplicate. Negative and transfectant-only controls may be measured up to six times per plate. After the cells have reached confluence (approximately three days), they were exposed to differentiation media (Zen-Bio, Inc.) containing a PPAR-γ agonist, IBMX, dexamethasone, and insulin for three days. Cells were then fed adipocyte media (Zen-Bio, Inc.), which was replaced at 2 to 3 day intervals. […] Triglyceride accumulation was measured based on the amount of glycerol liberated from triglycerides by the enzyme lipoprotein lipase. Liberated glycerol is phosphorylated by glycerol kinase, and hydrogen peroxide is generated during the oxidation of glycerol-1-phosphate to dihydroxyacetone phosphate by glycerol phosphate oxidase. Horseradish peroxidase (HRP) uses H2O2 to oxidize 4-aminoantipyrine and 3,5 dichloro-2-hydroxybenzene sulfonate to produce a red-colored dye. Dye absorbance, which is proportional to the concentration of glycerol, was measured at 515 nm using an UV spectrophotometer. Glycerol concentration was calculated from a standard curve for each assay, and data were normalized to total cellular protein as determined by a Bradford assay (Bio-Rad Laboratories, Hercules, Calif.). Results are expressed as a percent±standard deviation relative to transfectant-only control.

aP2 = aP2 mRNA expression in adipocytes (real-time PCR); settings: for aP2 mRNA: differentiating adipocytes transfected with oligomeric compound, Table 75; for AP2 mRNA: Table 18, differentiating adipocytes, control = treatment with ISIS 342673
Description: (§1) Expression of the four hallmark genes, HSL, aP2, Glut4, and PPARγ, is also measured in adipocytes transfected with oligomeric compounds of the invention. Cells are lysed on day nine post-transfection and total RNA is harvested. The amount of total RNA in each sample is determined using a Ribogreen Assay (Invitrogen Life Technologies, Carlsbad, Calif.).
(§2) For assaying adipocyte differentiation, expression of the four hallmark genes, HSL, aP2, Glut4, and PPARγ, as well as triglyceride (TG) accumulation and leptin secretion were measured in adipocytes transfected with the uniform 2′-MOE phosphorothioate (PS) oligomeric compounds previously described. Cells are lysed on day nine post-transfection, in a guanadinium-containing buffer and total RNA is harvested. Real-time PCR is performed (Applied Biosystems, Prism 7700) on the total RNA using the following primer/probe sets for the adipocyte differentiation hallmark genes: (aP2): forward 5′-GGTGGTGGAATGCGTCATG-3′ (SEQ ID NO: 746), reverse 5′-[…]-3′ (SEQ ID NO: 747), probe 5′-FAM-[…]-TAMRA-3′ (SEQ ID NO: 748); (Glut4): forward 5′-GGCCTCCGCAGGTTCTG-3′ (SEQ ID NO: 749), reverse 5′-[…]-3′ (SEQ ID NO: 750), probe 5′-FAM-[…]-TAMRA-3′ (SEQ ID NO: 751); (HSL): forward 5′-ACCTGCGCACAATGACACA-3′ (SEQ ID NO: 752), reverse 5′-[…]-3′ (SEQ ID NO: 753), probe 5′-FAM-[…]-TAMRA-3′ (SEQ ID NO: 754); (PPAR-γ): forward 5′-[…]-3′ (SEQ ID NO: 755), reverse 5′-[…]-3′ (SEQ ID NO: 756), probe 5′-FAM-[…]-TAMRA-3′ (SEQ ID NO: 757). The amount of total RNA in each sample is determined using a Ribogreen Assay (Molecular Probes, Eugene, Oreg.), and expression levels of the adipocyte differentiation hallmark genes were normalized to total RNA.

HSL = HSL mRNA expression in adipocytes (real-time PCR)
Description: as §1, §2

Glut4 = Glut4 mRNA expression in adipocytes (real-time PCR)
Description: as §1, §2

PPARγ = PPARγ mRNA expression in adipocytes (real-time PCR)
Description: as §1, §2

[1] = differentiating adipocytes transfected with oligomeric compound, Table 75
[2] = Table 18, differentiating adipocytes, control = treatment with ISIS 342673

Substance | TG (triglyceride accumulation) (adipocytes; [1]) | aP2 mRNA (aP2) | HSL mRNA (HSL; [1]) | GLUT4 mRNA (Glut4; [1]) | PPAR gamma mRNA (PPARγ; [1]) | TG (triglyceride accumulation) (adipocytes; [2]) | AP2 mRNA (aP2) | HSL mRNA (HSL; [2]) | GLUT4 mRNA (Glut4; [2]) | PPAR gamma mRNA (PPARγ; [2])
328097 (antisense eT*eG*eT*e[5mC]*eA*eG*eA*eT*eA*eA*eA*e[5mC]*eA*eG*eA*eG*eT*eG*eG*eA*eA) [compound 328097] | 65 percentage of untreated control (UTC) | 48 percentage of untreated control (UTC) | 54 percentage of untreated control (UTC) | 62 percentage of untreated control (UTC) | 63 percentage of untreated control (UTC) | – | – | – | – | –
328098 (antisense eG*eA*eG*eA*eA*eT*e[5mC]*eA*eA*eT*eA*eG*eG*eG*e[5mC]*eA*eT*eG*e[5mC]*eA*eA) [compound 328098] | 39 percentage of untreated control (UTC) | 23 percentage of untreated control (UTC) | 28 percentage of untreated control (UTC) | 25 percentage of untreated control (UTC) | 54 percentage of untreated control (UTC) | – | – | – | – | –
328099 (antisense eA*eA*eG*eA*eA*e[5mC]*eA*eT*eT*eA*eA*eG*e[5mC]*eA*eT*e[5mC]*eT*eG*eA*e[5mC]*eA) [compound 328099] | 57 percentage of untreated control (UTC) | 80 percentage of untreated control (UTC) | 74 percentage of untreated control (UTC) | 61 percentage of untreated control (UTC) | 72 percentage of untreated control (UTC) | 93.9 percentage of control | 85.9 percentage of control | 88.4 percentage of control | 86.8 percentage of control | 81.9 percentage of control
328100 (antisense eA*eA*eT*e[5mC]*eT*e[5mC]*eT*eG*e[5mC]*eA*eG*eG*e[5mC]*eA*eA*eA*eT*eG*eT*eG*eA) [compound 328100] | 20 percentage of untreated control (UTC) | 47 percentage of untreated control (UTC) | 49 percentage of untreated control (UTC) | 39 percentage of untreated control (UTC) | 48 percentage of untreated control (UTC) | 71.5 percentage of control | 61.9 percentage of control | 72.0 percentage of control | 74.2 percentage of control | 66.7 percentage of control
328101 (antisense eA*eA*eA*e[5mC]*e[5mC]*e[5mC]*e[5mC]*eT*eA*eT*e[5mC]*eA*e[5mC]*eG*eA*eT*eT*eA*eG*e[5mC]*eA) [compound 328101] | 67 percentage of untreated control (UTC) | 83 percentage of untreated control (UTC) | 78 percentage of untreated control (UTC) | 57 percentage of untreated control (UTC) | 70 percentage of untreated control (UTC) | 108.6 percentage of control | 83.2 percentage of control | 91.8 percentage of control | 84.7 percentage of control | 79.3 percentage of control
328102 (antisense eG*e[5mC]*e[5mC]*e[5mC]*e[5mC]*eA*eT*eT*eA*eA*eT*eA*eT*eT*eT*eT*eA*eA*e[5mC]*e[5mC]*eA) [compound 328102] | 70 percentage of untreated control (UTC) | 96 percentage of untreated control (UTC) | 99 percentage of untreated control (UTC) | 58 percentage of untreated control (UTC) | 94 percentage of untreated control (UTC) | 95.9 percentage of control | 87.9 percentage of control | 97.0 percentage of control | 79.2 percentage of control | 93.7 percentage of control
328103 (antisense e[5mC]*e[5mC]*e[5mC]*eA*eA*eT*eA*eT*e[5mC]*eA*eA*eA*e[5mC]*eA*eT*eA*eT*e[5mC]*eA) [compound 328103] | 113 percentage of untreated control (UTC) | 96 percentage of untreated control (UTC) | 87 percentage of untreated control (UTC) | 86 percentage of untreated control (UTC) | 83 percentage of untreated control (UTC) | 110.2 percentage of control | 83.2 percentage of control | 82.5 percentage of control | 94.3 percentage of control | 74.3 percentage of control
328104 (antisense eT*eA*eT*eG*eA*eT*eA*eG*e[5mC]*eT*eT*e[5mC]*e[5mC]*e[5mC]*e[5mC]*eA*eT*eG*eT*eA*eA) [compound 328104] | 64 percentage of untreated control (UTC) | 94 percentage of untreated control (UTC) | 81 percentage of untreated control (UTC) | 83 percentage of untreated control (UTC) | 73 percentage of untreated control (UTC) | 122.6 percentage of control | 102.2 percentage of control | 98.2 percentage of control | 119.1 percentage of control | 90.4 percentage of control
328106 (antisense eA*eT*eT*eG*eA*eT*eG*e[5mC]*eG*e[5mC]*e[5mC]*eA*eT*eT*eT*eG*eG*e[5mC]*e[5mC]*eT*eA) [compound 328106] | 70 percentage of untreated control (UTC) | 91 percentage of untreated control (UTC) | 86 percentage of untreated control (UTC) | 79 percentage of untreated control (UTC) | 81 percentage of untreated control (UTC) | 90.5 percentage of control | 88.8 percentage of control | 94.9 percentage of control | 105.7 percentage of control | 90.7 percentage of control
